{"source": "patent US11530190B2", "about": "“Compounds for treating mitochondrial disease” (Khondrion IP B.V., priority 2015, dated 2022)", "key": {"[1]": {"system": "primary human fibroblasts derived from a Complex-I deficient patient", "test": "Protection against oxidative stress-induced (BSO) cell death, Calcein-AM viability", "assay_type": "cell-based", "excerpt": "(§1) Methods: To assess the ability of the compounds to protect patient cells against oxidative stress-induced cell death an assay was established using stressed primary human fibroblasts derived from a Complex-I deficient patient. Utilizing the inherent oxidative stress of fibroblasts from patients with mitochondrial disease, their oxidative burden was further increased by depleting cellular glutathione with an inhibitor of glutathione synthesis, L-buthionine-(S,R)-sulfoximine (BSO).\nCells were seeded at a density of 3000 cells/well in a 96-well format plate and incubated with increasing concentrations of compounds in combination with BSO (200 μM, Sigma-Aldrich). Two days after treatment, the cells were washed twice and stained with a solution of 5 μM Calcein-AM (Life technologies C3100MP) during 25 min in 199 medium without phenol red (Life technologies, 11043-023) at 37° C., 5% CO2. After 2 washes with PBS the plate was read on a fluorescence plate reader (Fluostar Omega, BMG labtech) and the percentage of cell viability was determined as a function of fluorescence intensity (FIG. 2)."}, "[2]": {"system": "fibroblasts from healthy individuals", "test": "Effect of BSO on viability of fibroblasts from healthy individuals, Calcein-AM", "assay_type": "cell-based, human", "conditions": "BSO 200 μM, 48 h; FIG. 1", "protocol": "FIG. 1. Effect of L-buthionine-(S,R)-sulfoximine (BSO), an inhibitor of glutathione synthesis, on the viability of primary human fibroblasts derived from healthy individuals or derived from Complex-I deficient patients. Two days after treatment of 48 h with 200 μM BSO, cells were washed and stained with Calcein-AM. Cell viability was determined as a function of fluorescence intensity.\nas §1"}, "[3]": {"system": "Primary human fibroblasts derived from a patient with mitochondrial disease", "test": "Cellular ROS levels after H2O2 induction, CM-H2DCFDA fluorescence", "assay_type": "cell-based", "conditions": "compound 10 μM, H2O2 100 μM; FIG. 3", "excerpt": "Methods: CM-H2DCFDA is a cell-permeable reporter molecule for reactive oxygen species (ROS) that is converted into non-fluorescent and membrane-impermeable CM-H2DCF following removal of its acetate groups by intracellular esterases. Upon oxidation by ROS, CM-H2DCF is converted into fluorescent CM-DCF. It is widely accepted that a wide variety of ROS can be responsible for the CM-H2DCF oxidation, making it a suitable reporter of cellular oxidant levels. The average cellular CM-DCF fluorescence intensity is considered an indirect measure of cellular ROS levels.\nThe effect of the compounds on the intracellular ROS levels was measured in response to an induction of ROS by hydrogen peroxide. Primary human fibroblasts derived from a patient with mitochondrial disease were seeded at a density of 2500 cells/well in a 96-well format plate. […] Wells without cells were used to correct for the background fluorescence. The plate was read on a fluorescence plate reader (Fluostar Omega, BMG labtech) in a kinetic mode with a 2 min interval cycle. After 4 cycles, H2O2 (final concentration 100 μM) was added using onboard injectors and the fluorescence measurement was resumed for 1 hour. After background correction the fluorescence intensities were plotted as a function of time."}, "[4]": {"system": "Primary human fibroblasts obtained from a patient with mitochondrial disease", "test": "Intracellular superoxide production, hydroethidine (HEt) fluorescence microscopy", "assay_type": "cell-based", "conditions": "approximately 24 hours with increasing concentrations, HEt 10 μM; FIG. 4A-E", "protocol": "Methods: HEt (Hydroethidine) is a non-fluorescent compound, which can enter the cells freely. There it is oxidized by superoxide to its fluorescent products E^+ and 2OHE^+, which accumulate in negatively charged cellular compartments (i.e. nucleus and mitochondria). E^++2OHE^+ fluorescence is thus considered a measure of superoxide production within the cell.\nThe effect of the compounds on the intracellular superoxide levels was measured. Primary human fibroblasts obtained from a patient with mitochondrial disease were seeded at a density of 3000 cells/well in a 96-well format. The following day, the culture medium was replaced with 100 μl medium containing the compounds at different concentrations. After approximately 24 hours the cells were incubated with 100 μL medium without FBS and phenol red and containing HEt at a final concentration 10 μM (Life Technologies). The cell culture plate containing HEt was placed for 10 minutes at 37° C., 5% CO2. Next, the cells were washed twice with medium, placed in culture medium without FBS and phenol red and visualized by fluorescence microscopy (BD Pathway 855, BDBiosciences). From the obtained images superoxide levels were analysed using Image Pro plus (Media Cybernetics) software."}, "[5]": {"system": "cultured healthy human skin fibroblasts", "conditions": "cited from earlier work"}}}
{"smiles": "CCCCS(=N)(=O)CCC(N)C(=O)O", "note": "[BSO, L-buthionine-(S,R)-sulfoximine]", "values": [{"measurement": "viability of patient fibroblasts after BSO insult", "setting": "[1]; BSO 200 μM alone, within 48 h, FIG. 1", "result": "complete cell death"}, {"measurement": "viability of fibroblasts from healthy individuals after BSO insult", "setting": "[2]", "result": "retained full viability"}]}
{"smiles": "CC(C)=CCC/C(C)=C/CC/C(C)=C/CC[C@@](C)(O)CCC1=C(C)C(=O)C(C)=C(C)C1=O", "note": "[EPI743]", "values": [{"measurement": "EC50", "setting": "[1]; 200 μM BSO, two days, Calcein-AM cell viability, formate salt, read-out: EC50 in protecting the cells against oxidative stress-induced cell death", "result": 0.0353, "unit": "µM"}, {"measurement": "H2O2-mediated induction of cellular ROS levels (CM-DCF fluorescence)", "setting": "[3]", "result": "slightly diminished"}, {"measurement": "superoxide scavenging / superoxide levels (HEt fluorescence)", "setting": "[4]", "result": "only a limited ability to scavenge superoxide"}]}
{"smiles": "COC1=C(OC)C(=O)C(CCCCCCCCCCO)=C(C)C1=O", "note": "[Idebenone]", "values": [{"measurement": "H2O2-mediated induction of cellular ROS levels (CM-DCF fluorescence)", "setting": "[3]", "result": "slightly diminished"}, {"measurement": "superoxide scavenging / superoxide levels (HEt fluorescence)", "setting": "[4]", "result": "only a limited ability to scavenge superoxide"}]}
{"smiles": "Cc1c(C)c2c(c(C)c1O)CCC(C)(C(=O)O)O2", "note": "(centres unmarked) [Trolox, 6-hydroxy-2,5,7,8-tetramethylchroman-2-carboxylic acid]", "values": [{"measurement": "levels of ROS", "setting": "[5]", "result": "reduces the levels of ROS"}]}
